According to ChEMBL document CHEMBL1138696, “Evans Blue and other dyes as protein tyrosine phosphatase inhibitors” (Bioorg Med Chem Lett, 2004):
pIC50: −log10 of the molar value.

Legend:
[1] = Inhibition of human Leukocyte Antigen Related(LAR) protein tyrosine phosphatase D1
[2] = biological target: T1, Tyrosine-protein phosphatase non-receptor type 1 (Homo sapiens, UniProt P18031); test: Inhibition of human PTPase 1B
T1 sequence (P18031 whole entry): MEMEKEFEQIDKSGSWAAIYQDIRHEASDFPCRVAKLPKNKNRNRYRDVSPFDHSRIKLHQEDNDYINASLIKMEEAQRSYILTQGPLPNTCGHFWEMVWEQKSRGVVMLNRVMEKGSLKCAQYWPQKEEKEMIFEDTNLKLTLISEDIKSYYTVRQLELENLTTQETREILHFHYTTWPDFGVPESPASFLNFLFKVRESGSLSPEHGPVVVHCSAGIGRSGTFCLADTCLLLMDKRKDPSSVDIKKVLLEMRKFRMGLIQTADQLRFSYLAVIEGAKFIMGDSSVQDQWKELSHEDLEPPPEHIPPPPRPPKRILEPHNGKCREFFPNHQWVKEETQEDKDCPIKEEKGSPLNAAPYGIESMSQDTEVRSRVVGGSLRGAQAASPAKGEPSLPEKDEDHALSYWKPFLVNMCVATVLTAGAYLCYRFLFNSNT

[3] = biological target: T2, Tyrosine-protein phosphatase 1 (Saccharomyces cerevisiae S288c, UniProt P25044); test: Inhibitory activity against Saccharomyces cerevisiae Tyrosine phosphatase 1
T2 sequence (P25044 whole entry): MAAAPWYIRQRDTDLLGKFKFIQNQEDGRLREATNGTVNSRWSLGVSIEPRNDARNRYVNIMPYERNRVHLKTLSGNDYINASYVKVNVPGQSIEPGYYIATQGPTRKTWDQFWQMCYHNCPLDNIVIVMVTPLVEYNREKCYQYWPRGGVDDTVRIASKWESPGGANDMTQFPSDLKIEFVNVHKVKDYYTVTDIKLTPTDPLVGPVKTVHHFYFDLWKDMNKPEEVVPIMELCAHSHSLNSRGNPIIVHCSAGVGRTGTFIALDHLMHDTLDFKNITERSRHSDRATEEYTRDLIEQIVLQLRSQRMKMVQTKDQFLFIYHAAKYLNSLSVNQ

| Structure (SMILES) | pIC50 [1] | pIC50 [2] | pIC50 [3] |
| --- | --- | --- | --- |
| O=C(O)c1cc2ccccc2c(Cc2c(O)c(C(=O)O)cc3ccccc23)c1O [PAMOIC ACID] | < 3.00 | 3.51 | < 3.00 |
| C/C(=C1/C=CC(=O)C(C(=O)O)=C1)c1ccc(O)c(C(=O)O)c1 | < 3.00 | 5.28 | 4.52 |
| O=S(=O)(O)c1cc(O)c2c(O)cc(S(=O)(=O)O)cc2c1 [CHROMOTROPATE] | 3.24 | 5.01 | 5.19 |
| CC(C)=CC[C@@H](O)C1=CC(=O)c2c(O)ccc(O)c2C1=O [SHIKONIN] | < 3.00 | 4.60 |  |
| O=S(=O)(O)c1cc(S(=O)(=O)O)c2c(N=Nc3c(O)cc(S(=O)(=O)O)c4ccccc34)c(O)c(S(=O)(=O)O)cc2c1 [E126] |  | 3.34 | 3.96 |
| Cc1[nH]n(-c2ccccc2)c(=O)c1N=Nc1c(O)cc(S(=O)(=O)O)c2ccccc12 | 3.18 | 3.82 | 3.85 |
| O=C1OC2(c3ccc(O)cc3Oc3cc(O)ccc32)c2ccccc21 [FLUORESCEIN] | < 3.00 | 3.22 | 3.07 |
| Cc1cc(-c2ccc(/N=N/c3ccc4c(S(=O)(=O)O)cc(S(=O)(=O)O)c(N)c4c3O)c(C)c2)ccc1/N=N/c1ccc2c(S(=O)(=O)O)cc(S(=O)(=O)O)c(N)c2c1O [EVANS BLUE] | 4.21 | 5.89 | 5.92 |
| Cc1cc(-c2ccc(/N=N/c3c(S(=O)(=O)O)cc4cc(S(=O)(=O)O)cc(N)c4c3O)c(C)c2)ccc1/N=N/c1c(S(=O)(=O)O)cc2cc(S(=O)(=O)O)cc(N)c2c1O [TRYPAN BLUE] | 3.77 | 5.41 | 5.13 |
| O=C1c2ccccc2C(=O)c2c1cc(S(=O)(=O)O)c(O)c2O [Alizarin Red S] | 4.09 | 4.40 | 4.32 |
| O=C(O)c1cc(N=Nc2ccc([N+](=O)[O-])cc2)ccc1O | < 3.00 | 3.68 | 3.20 |
| COc1cc(S(=O)(=O)O)c(C)cc1N=Nc1c(O)ccc2cc(S(=O)(=O)O)ccc12 [E129] | 4.05 | 4.48 | 3.39 |
| Cc1c(C(=O)O)c(O)cc2c1C(=O)c1c(O)c([C@H]3O[C@H](CO)[C@@H](O)[C@H](O)[C@H]3O)c(O)c(O)c1C2=O [CARMINE] | < 3.00 | 4.59 | 4.82 |
